Results reported in US20160271263A1 (Novo Nordisk A/S, priority 2010, published 2016).
Numbered stars: 1 amine (or outer) side, 2 acyl side, 3 side chain; on linkers, the order of the positions; unused ones are H or OH. Side chains are listed from the residue outwards. Peptide text beside a SMILES is read from it. * marks the point of attachment. C18 diacid = O=C(O)CCCCCCCCCCCCCCCCC(=O)*; γGlu = O=C(O)[C@H](CCC(=O)[*:2])N[*:1]; AEEA = NCCOCCOCC(=O)O

target: glucagon receptor (Homo sapiens, UniProt P47871); test: cell-based
Sequence (P47871 26-477): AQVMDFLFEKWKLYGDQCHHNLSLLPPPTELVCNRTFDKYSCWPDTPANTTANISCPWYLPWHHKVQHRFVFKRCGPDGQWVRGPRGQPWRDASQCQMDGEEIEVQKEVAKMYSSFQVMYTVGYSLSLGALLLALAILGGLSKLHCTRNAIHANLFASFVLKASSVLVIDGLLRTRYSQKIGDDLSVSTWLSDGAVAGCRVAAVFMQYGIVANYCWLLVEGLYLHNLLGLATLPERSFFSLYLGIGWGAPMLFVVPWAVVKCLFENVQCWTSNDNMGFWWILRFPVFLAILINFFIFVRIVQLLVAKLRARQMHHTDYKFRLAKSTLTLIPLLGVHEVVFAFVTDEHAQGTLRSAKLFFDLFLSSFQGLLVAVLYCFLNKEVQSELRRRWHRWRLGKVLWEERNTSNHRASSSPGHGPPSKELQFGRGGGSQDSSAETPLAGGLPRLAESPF
Experimental: The cells (14000 per well) were incubated (37° C., 5% CO2) overnight in 384-well plates. Next day the cells were loaded with a calcium responsive dye that only distributed into the cytoplasm. Probenecid, an inhibitor of the organic anion transporter, was added to prevent the dye from leaving the cell. A PDE inhibitor was added to prevent formatted cAMP from being degraded. […] End point data were collected after 6 minutes. An increase in intracellular cAMP was proportional to an increased in calcium concentrations in the cytoplasm. […] EC50-values were calculated in Prism5.

Row | Compound | EC50 [nM]
1 | CC(C)C[C@H](NC(=O)[C@H](CC(C)C)NC(=O)[C@H](Cc1c[nH]c2ccccc12)NC(=O)[C@H](CCCCNC(=O)COCCOCCNC(=O)COCCOCCNC(=O)CC[C@H](NC(=O)CCCCCCCCCCCCCCCCC(=O)O)C(=O)O)NC(=O)[C@@H](NC(=O)[C@H](Cc1ccccc1)NC(=O)[C@H](CC(=O)O)NC(=O)[C@H](CCC(N)=O)NC(=O)[C@H](C)NC(=O)[C@H](CCCNC(=N)N)NC(=O)[C@H](CCCNC(=N)N)NC(=O)[C@H](CCC(=O)O)NC(=O)[C@H](CC(=O)O)NC(=O)[C@H](CC(C)C)NC(=O)[C@H](Cc1ccc(O)cc1)NC(=O)[C@H](CCCCN)NC(=O)[C@H](CO)NC(=O)[C@H](Cc1ccc(O)cc1)NC(=O)[C@H](CC(=O)O)NC(=O)[C@H](CO)NC(=O)[C@@H](NC(=O)[C@H](Cc1ccccc1)NC(=O)[C@@H](NC(=O)CNC(=O)[C@H](CCC(N)=O)NC(=O)[C@H](CO)NC(=O)[C@@H](N)Cc1c[nH]cn1)[C@@H](C)O)[C@@H](C)O)C(C)C)C(=O)N[C@@H](C)C(=O)N[C@H](C(N)=O)[C@@H](C)O [Example 32, N^ε24-([2-[2-[2-[[2-[2-[2-[[(4S)-5-hydroxy-4-[(18-hydroxy-18-oxooctadecanoyl)amino]-5-oxopentanoyl]amino]ethoxy]ethoxy]acetyl]amino]ethoxy]ethoxy]acetyl])[Glu^16, Lys^24, Leu^27, Ala^28] Glucagon peptide amide] (H-HSQGTFTSDYSKYLDERRAQDFVK([AEEA-AEEA-γGlu-C18 diacid])WLLAT-NH2; N-terminus assumed) | 0.0235
2 | CC(C)C[C@H](NC(=O)[C@H](Cc1ccc(O)cc1)NC(=O)[C@H](CCCCN)NC(=O)[C@H](CO)NC(=O)[C@H](Cc1ccc(O)cc1)NC(=O)[C@H](CC(=O)O)NC(=O)[C@H](CO)NC(=O)[C@@H](NC(=O)[C@H](Cc1ccccc1)NC(=O)[C@@H](NC(=O)CNC(=O)[C@H](CCC(N)=O)NC(=O)[C@H](CO)NC(=O)[C@@H](N)Cc1c[nH]cn1)[C@@H](C)O)[C@@H](C)O)C(=O)N[C@@H](CC(=O)O)C(=O)N[C@@H](CCCCNC(=O)COCCOCCNC(=O)COCCOCCNC(=O)CC[C@H](NC(=O)CCCCCCCCCCCCCCCCC(=O)O)C(=O)O)C(=O)N[C@@H](CCCNC(=N)N)C(=O)N[C@@H](CCCNC(=N)N)C(=O)N[C@@H](C)C(=O)N[C@@H](CCC(N)=O)C(=O)N[C@@H](CC(=O)O)C(=O)N[C@@H](Cc1ccccc1)C(=O)N[C@H](C(=O)N[C@@H](CCC(N)=O)C(=O)N[C@@H](Cc1c[nH]c2ccccc12)C(=O)N[C@@H](CC(C)C)C(=O)N[C@@H](CC(C)C)C(=O)N[C@@H](CC(N)=O)C(=O)N[C@H](C(=O)O)[C@@H](C)O)C(C)C [Example 17] (H-HSQGTFTSDYSKYLDK([AEEA-AEEA-γGlu-C18 diacid])RRAQDFVQWLLNT-OH; N-terminus and C-terminus assumed) | 0.003
3 | CC(C)C[C@H](NC(=O)[C@H](Cc1ccc(O)cc1)NC(=O)[C@H](CCCCN)NC(=O)[C@H](CO)NC(=O)[C@H](Cc1ccc(O)cc1)NC(=O)[C@H](CC(=O)O)NC(=O)[C@H](CO)NC(=O)[C@@H](NC(=O)[C@H](Cc1ccccc1)NC(=O)[C@@H](NC(=O)CNC(=O)[C@H](CCC(N)=O)NC(=O)[C@H](CO)NC(=O)[C@@H](N)Cc1c[nH]cn1)[C@@H](C)O)[C@@H](C)O)C(=O)N[C@@H](CC(=O)O)C(=O)N[C@@H](CO)C(=O)N[C@@H](CCCCN)C(=O)N[C@@H](CCCNC(=N)N)C(=O)N[C@@H](C)C(=O)N[C@@H](CCC(N)=O)C(=O)N[C@@H](CCC(=O)O)C(=O)N[C@@H](Cc1ccccc1)C(=O)N[C@H](C(=O)N[C@@H](CCC(N)=O)C(=O)N[C@@H](Cc1c[nH]c2ccccc12)C(=O)N[C@@H](CC(C)C)C(=O)N[C@@H](CC(C)C)C(=O)N[C@@H](CC(N)=O)C(=O)N[C@H](C(=O)N[C@@H](CCCCNC(=O)COCCOCCNC(=O)COCCOCCNC(=O)CC[C@H](NC(=O)CCCCCCCCCCCCCCCCC(=O)O)C(=O)O)C(N)=O)[C@@H](C)O)C(C)C [Example 42, N^α-([Lys^17, Glu^21, Leu^27] Glucagonyl) N^ε-([2-[2-[2-[[2-[2-[2-[[(4S)-5-hydroxy-4-[(18-hydroxy-18-oxooctadecanoyl)amino]-5-oxopentanoyl]amino]ethoxy]ethoxy]acetyl]amino]ethoxy]ethoxy]acetyl]) Lysinyl amide] (H-HSQGTFTSDYSKYLDSKRAQEFVQWLLNTK([AEEA-AEEA-γGlu-C18 diacid])-NH2; N-terminus assumed) | 0.017

Now from value to compound:

Row | EC50 [nM] | Compound
4 | 0.003 | CC(C)C[C@H](NC(=O)[C@H](CC(C)C)NC(=O)[C@H](Cc1c[nH]c2ccccc12)NC(=O)[C@H](CCC(N)=O)NC(=O)[C@@H](NC(=O)[C@H](Cc1ccccc1)NC(=O)[C@H](CCC(=O)O)NC(=O)[C@H](CCC(N)=O)NC(=O)[C@H](C)NC(=O)[C@H](CCCNC(=N)N)NC(=O)[C@H](CCCCN)NC(=O)[C@H](CO)NC(=O)[C@H](CC(=O)O)NC(=O)[C@H](CC(C)C)NC(=O)[C@H](Cc1ccc(O)cc1)NC(=O)[C@H](CCCCN)NC(=O)[C@H](CO)NC(=O)[C@H](Cc1ccc(O)cc1)NC(=O)[C@H](CC(=O)O)NC(=O)[C@H](CO)NC(=O)[C@@H](NC(=O)[C@H](Cc1ccccc1)NC(=O)[C@@H](NC(=O)CNC(=O)[C@H](CCC(N)=O)NC(=O)[C@H](CO)NC(=O)[C@@H](N)Cc1c[nH]cn1)[C@@H](C)O)[C@@H](C)O)C(C)C)C(=O)N[C@@H](CC(N)=O)C(=O)N[C@@H](CCCCNC(=O)COCCOCCNC(=O)COCCOCCNC(=O)CC[C@H](NC(=O)CCCCCCCCCCCCCCCCC(=O)O)C(=O)O)C(N)=O [Example 46, N^ε29 ([2-[2-[2-[[2-[2-[2-[[(4S)-5-hydroxy-4-[(18-hydroxy-18-oxooctadecanoyl)amino]-5-oxopentanoyl]amino]ethoxy]ethoxy]acetyl]amino]ethoxy]ethoxy]acetyl]) [Lys^17, Glu^21, Leu^27, Lys^29] Glucagon peptide amide] (H-HSQGTFTSDYSKYLDSKRAQEFVQWLLNK([AEEA-AEEA-γGlu-C18 diacid])-NH2; N-terminus assumed)
5 | 0.194 | CC(C)C[C@H](NC(=O)[C@H](Cc1ccc(O)cc1)NC(=O)[C@H](CCCCN)NC(=O)[C@H](CO)NC(=O)[C@H](Cc1ccc(O)cc1)NC(=O)[C@H](CC(=O)O)NC(=O)[C@H](CO)NC(=O)[C@@H](NC(=O)[C@H](Cc1ccccc1)NC(=O)[C@@H](NC(=O)CNC(=O)[C@H](CCC(N)=O)NC(=O)[C@H](CO)NC(=O)[C@@H](N)Cc1c[nH]cn1)[C@@H](C)O)[C@@H](C)O)C(=O)N[C@@H](CC(=O)O)C(=O)N[C@@H](CO)C(=O)N[C@@H](CCCNC(=N)N)C(=O)N[C@@H](CCCNC(=N)N)C(=O)N[C@@H](C)C(=O)N[C@@H](CCC(N)=O)C(=O)N[C@@H](CC(=O)O)C(=O)N[C@@H](Cc1ccccc1)C(=O)N[C@H](C(=O)N[C@@H](CCCCNC(=O)COCCOCCNC(=O)COCCOCCNC(=O)CC[C@H](NC(=O)CCCCCCCCCCCCCCCCC(=O)O)C(=O)O)C(=O)N[C@@H](Cc1c[nH]cn1)C(=O)N[C@@H](CC(C)C)C(=O)N[C@@H](CC(C)C)C(=O)N[C@@H](CC(N)=O)C(=O)N[C@H](C(=O)O)[C@@H](C)O)C(C)C [Example 50, N^ε24-([2-[2-[2-[[2-[2-[2-[[(4S)-5-hydroxy-4-[(18-hydroxy-18-oxooctadecanoyl)amino]-5-oxopentanoyl]amino]ethoxy]ethoxy]acetyl]amino]ethoxy]ethoxy]acetyl]) [Lys^24,His^25,Leu^27] Glucagon]
6 | 2.11 | CC(C)C[C@H](NC(=O)[C@H](Cc1ccc(O)cc1)NC(=O)[C@H](CCCNC(=N)N)NC(=O)[C@H](CO)NC(=O)[C@H](Cc1ccc(O)cc1)NC(=O)[C@H](CC(=O)O)NC(=O)[C@H](CO)NC(=O)[C@@H](NC(=O)[C@H](Cc1ccccc1)NC(=O)[C@@H](NC(=O)CNC(=O)[C@H](CCC(N)=O)NC(=O)[C@H](CO)NC(=O)[C@@H](N)Cc1c[nH]cn1)[C@@H](C)O)[C@@H](C)O)C(=O)N[C@@H](CC(=O)O)C(=O)N[C@@H](CO)C(=O)N[C@@H](CCCNC(=N)N)C(=O)N[C@@H](CCCNC(=N)N)C(=O)N[C@@H](C)C(=O)N[C@@H](CCC(N)=O)C(=O)N[C@@H](CC(=O)O)C(=O)N[C@@H](Cc1ccccc1)C(=O)N[C@H](C(=O)N[C@@H](CCC(N)=O)C(=O)N[C@@H](Cc1c[nH]c2ccccc12)C(=O)N[C@@H](CC(C)C)C(=O)N[C@@H](CCCCNC(=O)CC[C@H](NC(=O)CC[C@H](NC(=O)COCCOCCNC(=O)COCCOCCNC(=O)CC[C@H](NC(=O)CCCCCCCCCCCCCCCCC(=O)O)C(=O)O)C(=O)O)C(=O)O)C(=O)N[C@@H](CC(N)=O)C(=O)N1CCC[C@H]1C(=O)O)C(C)C [Example 87, N^ε27-[(4S)-4-carboxy-4-[[(4S)-4-carboxy-4-[[2-[2-[2-[[2-[2-[2-[[(4S)-4-carboxy-4-(17-carboxyheptadecanoylamino)butanoyl]amino]ethoxy]ethoxy]acetyl]amino]ethoxy]ethoxy]acetyl]amino]butanoyl]amino]butanoyl]-[Arg^12,Lys^27,Pro^29]-Glucagon]
7 | 0.009 | CC(C)C[C@H](NC(=O)[C@H](Cc1ccc(O)cc1)NC(=O)[C@H](CCCCN)NC(=O)[C@H](CO)NC(=O)[C@H](Cc1ccc(O)cc1)NC(=O)[C@H](CC(=O)O)NC(=O)[C@H](CO)NC(=O)[C@@H](NC(=O)[C@H](Cc1ccccc1)NC(=O)[C@@H](NC(=O)CNC(=O)[C@H](CCC(N)=O)NC(=O)[C@H](CO)NC(=O)[C@@H](N)Cc1c[nH]cn1)[C@@H](C)O)[C@@H](C)O)C(=O)N[C@@H](CC(=O)O)C(=O)N[C@@H](CO)C(=O)N[C@@H](CCCCN)C(=O)N[C@@H](CCCCN)C(=O)N[C@@H](C)C(=O)N[C@@H](CCC(N)=O)C(=O)N[C@@H](CCC(=O)O)C(=O)N[C@@H](Cc1ccccc1)C(=O)N[C@H](C(=O)N[C@@H](CCCCNC(=O)COCCOCCNC(=O)COCCOCCNC(=O)CC[C@H](NC(=O)CCCCCCCCCCCCCCCCC(=O)O)C(=O)O)C(=O)N[C@@H](Cc1c[nH]c2ccccc12)C(=O)N[C@@H](CC(C)C)C(=O)N[C@@H](CC(C)C)C(=O)N[C@@H](CO)C(=O)N[C@H](C(=O)O)[C@@H](C)O)C(C)C [Example 55, N^ε24-([2-[2-[2-[[2-[2-[2-[[(4S)-5-hydroxy-4-[(18-hydroxy-18-oxooctadecanoyl)amino]-5-oxopentanoyl]amino]ethoxy]ethoxy]acetyl]amino]ethoxy]ethoxy]acetyl]) [Lys^17,Lys^18,Glu^21,Lys^24,Leu^27, Ser^28] Glucagon] (H-HSQGTFTSDYSKYLDSKKAQEFVK([AEEA-AEEA-γGlu-C18 diacid])WLLST-OH; N-terminus and C-terminus assumed)
